Experimental data published in US20070128217A1 (priority 2003, published 2007).

Tests used:
[1] = tested on: antibodies in sera from SARS patients (sera 1a, 1b, 2, 6, 37, 62, London, SARS-yellow, SARS-green); type: binding, human; set-up: Binding of serum 6 to linear peptides of protein X1 of SARS-CoV Urbani / Binding of serum 37 to linear peptides of protein X1 of SARS-CoV Urbani / Binding of serum 6 to looped/cyclic peptide (PEPSCAN-ELISA) / Binding of serum 37 to looped/cyclic peptide (PEPSCAN-ELISA) / Binding of serum 37 to looped/cyclic peptides of protein X1 of SARS-CoV Urbani / Binding of serum 6 to linear peptides of protein X2 / Binding of serum 37 to linear peptides of protein X2 / Binding of serum 37 to looped/cyclic peptides of protein X2 of SARS-CoV Urbani / Binding of serum 6 to linear peptides of protein M of SARS-CoV Urbani / Binding of serum 37 to linear peptides of protein M of SARS-CoV Urbani / Binding of serum 6 to looped/cyclic peptides of protein M of SARS-CoV Urbani / Binding of serum 37 to looped/cyclic peptides of protein M of SARS-CoV Urbani / Binding of serum 6 to linear peptides of protein X3 of SARS-CoV Urbani / Binding of serum 37 to linear peptides of protein X3 of SARS-CoV Urbani / Binding of serum 37 to looped/cyclic peptides of protein X3 of SARS-CoV Urbani / Binding of serum 6 to linear peptides of protein X4 of SARS-CoV Urbani / Binding of serum 37 to linear peptides of protein X4 of SARS-CoV Urbani / Binding of serum 37 to looped/cyclic peptides of protein X4 of SARS-CoV Urbani / Binding of serum 6 to linear peptides of protein X5 of SARS-CoV Urbani / Binding of serum 37 to linear peptides of protein X5 of SARS-CoV Urbani / Binding of serum 37 to looped/cyclic peptides of protein X5 of SARS-CoV Urbani / Binding of serum 6 to linear peptides of protein N of SARS-CoV Urbani / Binding of serum 37 to linear peptides of protein N of SARS-CoV Urbani / Binding of serum 6 to linear peptide (PEPSCAN-ELISA) / Binding of serum 1a to looped/cyclic peptides of protein N of SARS-CoV Urbani / Binding of serum 1b to looped/cyclic peptides of protein N of SARS-CoV Urbani / Binding of serum 2 to looped/cyclic peptides of protein N of SARS-CoV Urbani / Binding of serum 6 to looped/cyclic peptides of protein N of SARS-CoV Urbani / Binding of serum 37 to looped/cyclic peptides of protein N of SARS-CoV Urbani / Binding of serum 62 to looped/cyclic peptides of protein N of SARS-CoV Urbani / Binding of serum London to looped/cyclic peptides of protein N of SARS-CoV Urbani / Binding of serum SARS-green to looped/cyclic peptides of protein N of SARS-CoV Urbani: unit not given here
[2] = tested on: control sera (pooled serum of ten healthy LUMC hospital workers; commercial negative donor pooled serum from the Dutch bloodbank); type: binding, human; set-up: Binding of Control serum LUMC to linear peptides / Binding of Control serum Blood-bank to linear peptides / Binding of Control serum LUMC to looped peptides / Binding of Control Serum Blood-Bank to Looped peptides / Binding of Control serum LUMC to linear peptides of the protein M of SARS-CoV Urbani / Binding of Control serum Blood-bank to linear peptides of the protein M of SARS-CoV Urbani / Binding of Control serum LUMC to looped peptides of the protein M of SARS-CoV Urbani / Binding of Control Serum Blood-Bank to Looped peptides of the protein M of SARS-CoV Urbani: unit not given here
[3] = tested on: rabbit serum obtained by immunizing a rabbit with the SARS-CoV strain Frankfurt 1; type: binding; set-up: Binding of a rabbit serum to linear peptides / Binding of a rabbit serum to looped peptides / Rabbit serum linear peptides / Rabbit serum looped peptides / Binding of a rabbit serum to linear peptides of protein N of SARS-CoV Urbani (Rabbit serum linear peptides) / Binding of a rabbit serum to looped/cyclic peptides of protein N of SARS-CoV Urbani (Rabbit serum looped peptides): unit not given here

CTPNVTINCQDPAGG
Binding of serum 1a to linear peptides of protein X5 of SARS-CoV Urbani [1]: 1.0
Binding of serum 1a to looped/cyclic peptides of protein X5 of SARS-CoV Urbani [1]: 0.6
Binding of serum 1b to linear peptides of protein X5 of SARS-CoV Urbani [1]: 0.8
Binding of serum 1b to looped/cyclic peptides of protein X5 of SARS-CoV Urbani [1]: 0.8
Binding of serum 2 to linear peptides of protein X5 of SARS-CoV Urbani [1]: 0.6
Binding of serum 2 to looped/cyclic peptides of protein X5 of SARS-CoV Urbani [1]: 0.3
Binding of serum 6 to linear peptides of protein X5 of SARS-CoV Urbani [1]: 0.6
Binding of serum 6 to looped/cyclic peptides of protein X5 of SARS-CoV Urbani [1]: 0.3
Binding of serum 37 to linear peptides of protein X5 of SARS-CoV Urbani [1]: 0.7
Binding of serum 37 to looped/cyclic peptides of protein X5 of SARS-CoV Urbani [1]: 0.4
Binding of serum 62 to linear peptides of protein X5 of SARS-CoV Urbani [1]: 0.7
Binding of serum 62 to looped/cyclic peptides of protein X5 of SARS-CoV Urbani [1]: 0.3
Binding of serum London to linear peptides of protein X5 of SARS-CoV Urbani [1]: 0.8
Binding of serum London to looped/cyclic peptides of protein X5 of SARS-CoV Urbani [1]: 0.2
Binding of serum SARS-green to linear peptides of protein X5 of SARS-CoV Urbani [1]: 0.5
Binding of serum SARS-green to looped/cyclic peptides of protein X5 of SARS-CoV Urbani [1]: 0.4
Binding of serum SARS-yellow to linear peptides of protein X5 of SARS-CoV Urbani [1]: 0.0
Binding of serum SARS-yellow to looped/cyclic peptides of protein X5 of SARS-CoV Urbani [1]: 0.4
Binding of Control Serum Blood-Bank to Looped peptides [2]: 0.4
Binding of Control serum Blood-bank to linear peptides [2]: 0.7
Binding of Control serum LUMC to linear peptides [2]: 0.3
Binding of Control serum LUMC to looped peptides [2]: 0.4
Rabbit serum linear peptides [3]: 0.4
Rabbit serum looped peptides [3]: 0.0

CTSTHFAFACADGTR
Binding of serum 1a to linear peptides of protein X4 of SARS-CoV Urbani [1]: 0.7
Binding of serum 1a to looped/cyclic peptides of protein X4 of SARS-CoV Urbani [1]: 0.7
Binding of serum 1b to linear peptides of protein X4 of SARS-CoV Urbani [1]: 0.7
Binding of serum 1b to looped/cyclic peptides of protein X4 of SARS-CoV Urbani [1]: 0.4
Binding of serum 2 to linear peptides of protein X4 of SARS-CoV Urbani [1]: 0.5
Binding of serum 2 to looped/cyclic peptides of protein X4 of SARS-CoV Urbani [1]: 0.6
Binding of serum 6 to linear peptides of protein X4 of SARS-CoV Urbani [1]: 0.6
Binding of serum 6 to looped/cyclic peptides of protein X4 of SARS-CoV Urbani [1]: 0.6
Binding of serum 37 to linear peptides of protein X4 of SARS-CoV Urbani [1]: 0.7
Binding of serum 37 to looped/cyclic peptides of protein X4 of SARS-CoV Urbani [1]: 0.7
Binding of serum 62 to linear peptides of protein X4 of SARS-CoV Urbani [1]: 0.8
Binding of serum 62 to looped/cyclic peptides of protein X4 of SARS-CoV Urbani [1]: 0.7
Binding of serum London to linear peptides of protein X4 of SARS-CoV Urbani [1]: 0.7
Binding of serum London to looped/cyclic peptides of protein X4 of SARS-CoV Urbani [1]: 0.3
Binding of serum SARS-green to linear peptides of protein X4 of SARS-CoV Urbani [1]: 0.6
Binding of serum SARS-green to looped/cyclic peptides of protein X4 of SARS-CoV Urbani [1]: 0.4
Binding of serum SARS-yellow to linear peptides of protein X4 of SARS-CoV Urbani [1]: 0.4
Binding of serum SARS-yellow to looped/cyclic peptides of protein X4 of SARS-CoV Urbani [1]: 1.0
Binding of Control Serum Blood-Bank to Looped peptides [2]: 0.8
Binding of Control serum Blood-bank to linear peptides [2]: 0.7
Binding of Control serum LUMC to linear peptides [2]: 0.8
Binding of Control serum LUMC to looped peptides [2]: 0.7
Rabbit serum linear peptides [3]: 0.4
Rabbit serum looped peptides [3]: 0.6

CWLCWKCKSKNPLLY
Binding of serum 1a to looped/cyclic peptide (PEPSCAN-ELISA) [1]: 0.7
Binding of serum 1b to looped/cyclic peptide (PEPSCAN-ELISA) [1]: 0.4
Binding of serum 2 to looped/cyclic peptide (PEPSCAN-ELISA) [1]: 0.5
Binding of serum 6 to looped/cyclic peptide (PEPSCAN-ELISA) [1]: 0.7
Binding of serum 37 to looped/cyclic peptide (PEPSCAN-ELISA) [1]: 0.7
Binding of serum 62 to looped/cyclic peptide (PEPSCAN-ELISA) [1]: 0.7
Binding of serum London to looped/cyclic peptide (PEPSCAN-ELISA) [1]: 0.3
Binding of serum SARS-green to looped/cyclic peptide (PEPSCAN-ELISA) [1]: 0.3
Binding of serum SARS-yellow to looped/cyclic peptide (PEPSCAN-ELISA) [1]: 0.5
Recognition of the peptide by sera of SARS-CoV infected individuals, and form (linear, looped/cyclic) in which it is recognized [1]: recognized in linear form
Binding of Control Serum Blood-Bank to Looped peptides [2]: 0.6
Binding of Control serum Blood-bank to linear peptides [2]: 0.9
Binding of Control serum LUMC to linear peptides [2]: 0.7
Binding of Control serum LUMC to looped peptides [2]: 0.7
Binding of a rabbit serum to linear peptides [3]: 0.2
Binding of a rabbit serum to looped peptides [3]: 0.7

DGTRHTYQLRARSVS
Binding of serum 1a to linear peptides of protein X4 of SARS-CoV Urbani [1]: 0.6
Binding of serum 1a to looped/cyclic peptides of protein X4 of SARS-CoV Urbani [1]: 0.8
Binding of serum 1b to linear peptides of protein X4 of SARS-CoV Urbani [1]: 0.5
Binding of serum 1b to looped/cyclic peptides of protein X4 of SARS-CoV Urbani [1]: 0.5
Binding of serum 2 to linear peptides of protein X4 of SARS-CoV Urbani [1]: 0.8
Binding of serum 2 to looped/cyclic peptides of protein X4 of SARS-CoV Urbani [1]: 0.8
Binding of serum 6 to linear peptides of protein X4 of SARS-CoV Urbani [1]: 0.8
Binding of serum 6 to looped/cyclic peptides of protein X4 of SARS-CoV Urbani [1]: 0.8
Binding of serum 37 to linear peptides of protein X4 of SARS-CoV Urbani [1]: 0.8
Binding of serum 37 to looped/cyclic peptides of protein X4 of SARS-CoV Urbani [1]: 0.7
Binding of serum 62 to linear peptides of protein X4 of SARS-CoV Urbani [1]: 0.7
Binding of serum 62 to looped/cyclic peptides of protein X4 of SARS-CoV Urbani [1]: 0.7
Binding of serum London to linear peptides of protein X4 of SARS-CoV Urbani [1]: 0.7
Binding of serum London to looped/cyclic peptides of protein X4 of SARS-CoV Urbani [1]: 0.4
Binding of serum SARS-green to linear peptides of protein X4 of SARS-CoV Urbani [1]: 0.4
Binding of serum SARS-green to looped/cyclic peptides of protein X4 of SARS-CoV Urbani [1]: 0.6
Binding of serum SARS-yellow to linear peptides of protein X4 of SARS-CoV Urbani [1]: 0.5
Binding of serum SARS-yellow to looped/cyclic peptides of protein X4 of SARS-CoV Urbani [1]: 0.7
Binding of Control Serum Blood-Bank to Looped peptides [2]: 0.8
Binding of Control serum Blood-bank to linear peptides [2]: 0.6
Binding of Control serum LUMC to linear peptides [2]: 0.5
Binding of Control serum LUMC to looped peptides [2]: 0.7
Recognition of the peptide by the rabbit serum [3]: recognized
